Read-outs that look alike come from different tables or passages of the source. Square brackets hold non-standard residues; d marks the D form. Peptide text beside a SMILES is read from it.
How the values were obtained:
[1] = LPS neutralization, limulus amebocyte lysate (LAL) assay; format: biochemical, Escherichia coli O111:B4; settings: 50 μM peptide, 20 ng/mL LPS, 30 min at 37 °C, LAL chromogenic kit, 405 nm; triplicate
Description: The LPS-neutralizing activity of all peptides was determined using the Pierce LAL chromogenic endotoxin quantitation kit (ThermoFisher Scientific, MA, USA). All peptides including standard (Polymixin B) at varying concentrations (3.12, 6.25, 12.5, 25, and 50 μM in endotoxin-free water) were allowed to bind with 20 ng/mL of LPS in a 96-well plate for 30 min at 37 °C. To this, an equal volume (10 μL) of LAL reagent was added and incubated for 10 min at 37 °C and then 20μL of LAL chromogenic substrate was added. After 15 min incubation at 37 °C, the reaction was stopped by 25% acetic acid and the reduction in yellow color formation due to the substrate was measured at 405 nm on an absorbance microplate reader. The experiment was conducted in triplicate, and the changes in absorbance due to peptide-LPS interaction are indicated as percent LPS neutralization.

[2] = test system: A. baumannii (KCCM 40203)
Text: (§1) Two strains of gram-negative bacteria, namely E. coli (KCTC 1682) and A. baumannii (KCCM 40203) from the Korean Collection for Type Cultures (KCTC) (Taejon, Korea) and Korean Culture Center of Microorganisms (KCCM) (Seoul, South Korea). Escherichia coli K1 strain RS218 (O18:K1:H7) was a gift from Prof. Jang-Won Yoon in Kangwon National University (Chuncheon, South Korea). Multidrug-resistant gram-negative bacteria (E. coli CCARM 1229, E. coli CCARM 1238, A. baumannii CCARM 12010, and A. baumannii CCARM 12220) were obtained from the Culture Collection of Antibiotic-Resistant Microbes (CCARM) at Seoul Women’s University (Seoul, South Korea).
(§2) Briefly, the microplates were inoculated with two-fold serial dilutions of each peptides in Mueller–Hinton (MH) media and then seeded with log-phase culture of aforementioned bacterial suspensions (2 × 10^5 CFU/mL). The microplates were incubated for 16 h at 37 °C, and absorbance was read at 600 nm using microplate reader SpectraMAX (Molecular Devices, San Jose, CA, USA).

[3] = test system: E. Coli
Text: as §1, §2

[4] = test system: MDRAB 12010 (A. baumannii CCARM 12010)
Text: as §1, §2

[5] = test system: MDRAB 12220 (A. baumannii CCARM 12220)
Text: as §1, §2

[6] = test system: MDREC 1229 (E. coli CCARM 1229)
Text: as §1, §2

[7] = test system: MDREC 1238 (E. coli CCARM 1238)
Text: as §1, §2

[8] = test system: Standard gram-negative bacteria; settings: table row printed 'Standard gram-negative bacteria'; MH media, 2 × 10^5 CFU/mL, 16 h at 37 °C, absorbance 600 nm; average of three measurements
Text: as §1, §2

[9] = test system: sheep red blood cells (sRBCs); test: Hemolytic activity; format: cell-based
Description: The hemolytic activity of all Pro-peptides were tested against sheep red blood cells (sRBCs) as described in previous reports. Fresh sRBCs were washed three times with phosphate-buffered saline (PBS) followed by centrifugation for 5 min at 2500 rpm at 4 °C. Peptides (0.2 to 100 μM) in PBS were incubated with 4% (v/v) sRBCs for 1 h at 37 °C. The contents were then centrifuged for 5 min at 1000 × g. The absorbance of the supernatant at 405 nm was used as a measure of hemolysis, and three times independent measurements were averaged. As a control, 100% hemolysis was obtained by treating sRBCs with melittin.

[10] = test system: RAW264.7 cells; test: Cytotoxicity, WST-8 cell proliferation assay; format: cell-based, mouse; settings: 24 h, WST-8, 450 nm, mean of three experiments
Description: Murine RAW264.7 macrophage cells were purchased from Korean Cell Line Bank (Seoul, South Korea). The cells were cultured in Dulbecco modified Eagle medium (DMEM) (Thermo Fischer Scientific Inc., MA, USA) supplemented with 10% fetal bovine serum, 100 U/mL penicillin, and […] streptomycin at 37 °C in a humidified 5% CO2 incubator. The cytotoxicity of peptides against RAW264.7 cells was determined using WST-8 Cell Proliferation Assay Kit (Biomax Co.,Ltd, Seoul, South Korea). Briefly, cells (1 × 10^5) were seeded in 96-well plated and then treated with 3.125, 6.25, 12.5, 25, and 50 μM of respective peptides for 24 h followed by addition of 10 μL of the WST-8 reagent for another 3 h incubation at 37 °C. The color intensity was read at 450 nm using a microplate reader.

[11] = test system: chymotrypsin; test: Protease stability assay (antimicrobial activity after protease digestion); format: in vitro ADME; settings: peptide–enzyme 10,000:1, PBS, 6 h at 37 °C preincubation, then E. coli and A. baumannii 2 × 10^5 CFU/mL, 16 h at 37 °C, 600 nm, repeated three times
Description: (§3) For stability analysis, all Pro-peptides at their MICs were incubated with trypsin and chymotrypsin at the ratio of 10,000:1 (peptide–enzyme) in PBS for 6 h at 37 °C. After incubation, 100 μL of peptide-protease mixture was added to the 100 μL bacterial suspension (E. coli and A. baumannii, 2 × 10^5 CFU/mL) and further incubated for 16 h at 37 °C. Melittin was used as standard peptide, and bacterial suspension without peptide and protease served as control. The experiment was repeated three times, and the extent of bacterial growth was measured at 600 nm using a microplate reader.

[12] = test system: trypsin; test: as above; format: in vitro ADME; settings: peptide–enzyme 10,000:1, PBS, 6 h at 37 °C preincubation, then E. coli and A. baumannii 2 × 10^5 CFU/mL, 16 h at 37 °C, 600 nm, repeated three times
Description: as §3

[13] = test system: all bacterial strains; test: Mean MIC over all bacterial strains (GM); format: cell-based; settings: mean MIC of all bacterial strains of Table 2
Description: as §2

Compound | Minimal Inhibitory Concentration (MIC100) ([2]; KCCM 40203, 16 h) | Minimal Inhibitory Concentration (MIC100) ([3]; 16 h) | Minimal Inhibitory Concentration (MIC100) ([4]; CCARM 12010, 16 h) | Minimal Inhibitory Concentration (MIC100) ([5]; CCARM 12220, 16 h) | Minimal Inhibitory Concentration (MIC100) ([6]; CCARM 1229, 16 h) | Minimal Inhibitory Concentration (MIC100) ([7]; CCARM 1238, 16 h) | Minimal Inhibitory Concentration (MIC100) [8] | HC10 (peptide concentration inducing 10% hemolysis) ([9]; red cells of sheep, 1 h) | survival rate of RAW264.7 cells ([10]; 25 μM) | survival rate of RAW264.7 cells ([10]; 50 μM) | peptide concentration up to which bacterial growth was not inhibited in the presence of protease [11] | further results
polymyxin B [reference compound] |  |  |  |  |  |  |  |  |  |  |  | inhibition of the activation of LPS (LPS neutralization) [1]: 67.4%
CC[C@H](C)[C@H](NC(=O)[C@H](C)NC(=O)[C@H](CC(C)C)NC(=O)[C@H](Cc1c[nH]c2ccccc12)NC(=O)[C@H](CC(C)C)NC(=O)[C@@H](N)CCCNC(=N)N)C(=O)N[C@@H](Cc1c[nH]c2ccccc12)C(=O)N[C@@H](CCCNC(=N)N)C(=O)N[C@@H](CCCNC(=N)N)C(N)=O [Pro9-3] (H-RLWLAIWRR-NH2) | 16 µM | 16 µM | 16 µM | 16 µM | 16 µM | 32 µM | 16 µM | 200 µM | 95% | 94% | > 64 µM | 
CC[C@@H](C)[C@@H](NC(=O)[C@@H](C)NC(=O)[C@@H](CC(C)C)NC(=O)[C@@H](Cc1c[nH]c2ccccc12)NC(=O)[C@@H](CC(C)C)NC(=O)[C@H](N)CCCNC(=N)N)C(=O)N[C@H](Cc1c[nH]c2ccccc12)C(=O)N[C@H](CCCNC(=N)N)C(=O)N[C@H](CCCNC(=N)N)C(N)=O [Pro9-3D] (H-[dR][dL][dW][dL][dA][dI][dW][dR][dR]-NH2) | 4 µM | 4 µM | 8 µM | 8 µM | 8 µM | 4 µM |  | 200 µM | 68% | 51.8% |  | 
CC[C@H](C)[C@H](NC(=O)[C@H](C)NC(=O)[C@H](CC(C)C)NC(=O)[C@H](Cc1c[nH]c2ccccc12)NC(=O)[C@H](CC(C)C)NC(=O)[C@H](CCCNC(=N)N)NC(=O)[C@@H](N)CCCNC(=N)N)C(=O)N[C@@H](Cc1c[nH]c2ccccc12)C(=O)N[C@@H](CCCNC(=N)N)C(=O)N[C@@H](CCCNC(=N)N)C(N)=O [Pro10-1] (H-RRLWLAIWRR-NH2) |  |  |  |  |  |  | 16 µM |  | 90% | 87% | > 64 µM | Minimal Inhibitory Concentration (MIC100) ([2]; A. baumannii, MH media, 2 × 10^5 CFU/mL, 16 h at 37 °C, absorbance 600 nm, average of three measurements): 8 µM; Minimal Inhibitory Concentration (MIC100) ([3]; table row printed 'E. Coli', MH media, 2 × 10^5 CFU/mL, 16 h at 37 °C, absorbance 600 nm, average of three measurements): 16 µM; Minimal Inhibitory Concentration (MIC100) ([4]; MDRAB 12010, MH media, 2 × 10^5 CFU/mL, 16 h at 37 °C, absorbance 600 nm, average of three measurements): 8 µM; Minimal Inhibitory Concentration (MIC100) ([5]; MDRAB 12220, MH media, 2 × 10^5 CFU/mL, 16 h at 37 °C, absorbance 600 nm, average of three measurements): 16 µM; Minimal Inhibitory Concentration (MIC100) ([6]; MDREC 1229, MH media, 2 × 10^5 CFU/mL, 16 h at 37 °C, absorbance 600 nm, average of three measurements): 8 µM; Minimal Inhibitory Concentration (MIC100) ([7]; MDREC 1238, MH media, 2 × 10^5 CFU/mL, 16 h at 37 °C, absorbance 600 nm, average of three measurements): 32 µM; hemolysis ([9]; 100 μM peptide, 4% (v/v) sRBCs in PBS, 1 h at 37 °C, absorbance 405 nm, three measurements averaged): no hemolytic activity; HC10 (peptide concentration inducing 10% hemolysis) ([9]; heparinized sheep red blood cells, 200 μM entered when no detectable hemolysis was observed at 100 μM): 200 µM; peptide concentration up to which bacterial growth was not inhibited in the presence of protease [12]: > 64 µM
CC[C@H](C)[C@H](NC(=O)CN)C(=O)NCC(=O)N[C@@H](C)C(=O)N[C@H](C(=O)N[C@@H](CC(C)C)C(=O)N[C@@H](CCCCN)C(=O)N[C@H](C(=O)N[C@@H](CC(C)C)C(=O)N[C@H](C(=O)N[C@H](C(=O)NCC(=O)N[C@@H](CC(C)C)C(=O)N1CCC[C@H]1C(=O)N[C@@H](C)C(=O)N[C@@H](CC(C)C)C(=O)N[C@H](C(=O)N[C@@H](CO)C(=O)N[C@@H](Cc1c[nH]c2ccccc12)C(=O)N[C@H](C(=O)N[C@@H](CCCCN)C(=O)N[C@@H](CCCNC(=N)N)C(=O)N[C@@H](CCCCN)C(=O)N[C@@H](CCCNC(=N)N)C(=O)N[C@@H](CCC(N)=O)C(=O)N[C@@H](CCC(N)=O)C(N)=O)[C@@H](C)CC)[C@@H](C)CC)[C@@H](C)O)[C@@H](C)O)C(C)C)C(C)C [Melittin, reference compound] |  |  |  |  |  |  |  |  |  |  |  | GM (geometric mean of MIC values of all bacterial strains) [13]: 12.0 µM

Reference: publication PMC7504360 (International Journal of Molecular Sciences, 2020)
